Data set [1] relates to SNB-19 (human glioblastoma). The data set is described as follows: WST-1 proliferation assay, SNB-19. The class given is cell-based. Conditions: Homo sapiens, SNB-19, 72 h exposure. (In general: Formazan colour is commonly taken as a measure of viable cells.)
Data set [2] concerns A549 (human lung carcinoma). The experiment in a line: WST-1 proliferation assay, A549. Format: cell-based. Conditions: Homo sapiens, A549, 72 h exposure.
Data set [3] concerns T-47D (human breast cancer). The data set is described as follows: WST-1 proliferation assay, T47D. Format: cell-based. Conditions: Homo sapiens, T47D, 72 h exposure.
Data set [4] has as its system NHDF (normal human dermal fibroblasts). The experiment in a line: WST-1 proliferation assay, NHDF. Format: cell-based. Conditions: Homo sapiens, NHDF, normal cells, 72 h exposure.
For data set [5], the system named is Staphylococcus aureus ATCC 29213. The experiment in a line: MIC, microtitration broth method, SA. The class given is cell-based. Conditions: ATCC29213, 24 h at 37 °C.
The test system of data set [6] is methicillin-resistant S. aureus SA 3202. The experiment in a line: MIC, microtitration broth method, MRSA1. Conditions: Staphylococcus aureus; 24 h at 37 °C. Format: cell-based.
For data set [7], the system named is methicillin-resistant S. aureus SA 630. The data set is described as follows: MIC, microtitration broth method, MRSA2. Format: cell-based. Conditions: Staphylococcus aureus; 24 h at 37 °C.
The test system of data set [8] is methicillin-resistant S. aureus 63718. The experiment in a line: MIC, microtitration broth method, MRSA3. Conditions: Staphylococcus aureus; 24 h at 37 °C. Format: cell-based.
Data set [9] concerns Enterococcus faecalis ATCC 29213. The data set is described as follows: MIC, microtitration broth method, EF. The class given is cell-based. Conditions: ATCC29213, 24 h at 37 °C.
In data set [10] the test system is vancomycin-resistant E. faecalis VRE 342B. The experiment in a line: MIC, microtitration broth method, VRE1. Format: cell-based. Conditions: Enterococcus faecalis, 24 h at 37 °C.
Data set [11] relates to vancomycin-resistant E. faecalis VRE 368. The data set is described as follows: MIC, microtitration broth method, VRE2. Format: cell-based. Conditions: Enterococcus faecalis, 24 h at 37 °C.
Data set [12] has as its system vancomycin-resistant E. faecalis VRE 725B. The experiment in a line: MIC, microtitration broth method, VRE3. The class given is cell-based. Conditions: Enterococcus faecalis, 24 h at 37 °C.
For data set [13], the system named is Mycobacterium smegmatis ATCC 700084. The data set is described as follows: MIC, broth dilution micro-method, MS. Format: cell-based. Conditions: Mycolicibacterium smegmatis, ATCC700084, 72 h; 3 days at 37 °C. (In general: In broth dilution the organism is exposed to a series of concentrations in liquid medium.)
Data set [14] deals with Mycobacterium marinum CAMP 5644. The data set is described as follows: MIC, broth dilution micro-method, MM. The class given is cell-based. Conditions: CAMP5644, 504 h, 21 days at 28 °C.
For data set [15], the system named is Staphylococcus aureus ATCC 29213. The experiment in a line: MBC, agar aliquot subculture method, SA. Format: cell-based. Conditions: ATCC29213. As to the method:
(§1) For the above-mentioned strains/isolates, the agar aliquot subculture method was used as a test for bactericidal agents. After the MIC value determination, the inoculum was transferred to CaMH (Oxoid) for staphylococci, BHI (Oxoid) for enterococci, and Middlebrook 7H9 (Difco) for mycobacteria medium using a multipoint inoculator. As indicated above, the plates were incubated on a thermostat at 37 °C for the appropriate time for each micro-organism. The lowest concentration of test compound at which ≤5 colonies were obtained was then evaluated as MBC, corresponding to a 99.9% decrease in CFU relative to the original inoculum.

For data set [16], the system named is methicillin-resistant S. aureus SA 630. The data set is described as follows: MBC, agar aliquot subculture method, MRSA2. Format: cell-based. Conditions: Staphylococcus aureus. As to the method: as §1
For data set [17], the system named is methicillin-resistant S. aureus 63718. The experiment in a line: MBC, agar aliquot subculture method, MRSA3. The class given is cell-based. Conditions: Staphylococcus aureus. As to the method:
as §1

The test system of data set [18] is Mycobacterium smegmatis ATCC 700084. The experiment in a line: MBC, agar aliquot subculture method, MS. Conditions: Mycolicibacterium smegmatis, ATCC700084. Format: cell-based. Put shortly:
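After MIC determination, inocula were subcultured onto CaMH agar (staphylococci), BHI (enterococci) or Middlebrook 7H9 (mycobacteria) and incubated at 37 °C for an organism-appropriate time. MBC taken as lowest concentration giving ≤5 colonies, i.e. 99.9% CFU reduction versus original inoculum.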

The subject of data set [19] is Mycobacterium marinum CAMP 5644. The experiment in a line: MBC, agar aliquot subculture method, MM. Format: cell-based. Conditions: CAMP5644. The essentials: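 MBC = lowest concentration yielding ≤5 colonies (99.9% CFU reduction vs starting inoculum). Subculture from MIC wells onto CaMH for MRSA, BHI for enterococci, Middlebrook 7H9 for M. marinum; 37 °C, time per organism.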

Data set [20] deals with human cancer cell lines (A549, SNB-19, and T-47D). The experiment in a line: WST-1 proliferation assay, cancer cell line panel. Format: cell-based. Conditions: SNB-19, A549, T47D, read-out: IC50 range over the tested cancer cell lines. Here is the method: Compounds were evaluated for their antiproliferative activity using three cultured cell lines: A549 (human lung carcinoma, ATCC, Manassas, VA, USA), SNB-19 (human glioblastoma, DSMZ, German Collection of Microorganisms and Cell Cultures), T-47D (human breast cancer, ATCC, Manassas, VA, USA), and NHDF (normal human dermal fibroblasts, ATCC, Manassas, VA, USA). The cultured cells were kept at 37 °C and 5% CO2. The cells were seeded (1 × 10^4 cells/well/100 μL DMEM supplemented with 10% FCS, streptomycin, and penicillin) using 96-well plates (corning). Cells were counted in a hemocytometer (Burker chamber) using a phase contrast Olympus IX50 microscope equipped with a Sony SSC-DC58 AP camera and an Olympus DP10 digital camera.
The antiproliferative effect of the compounds exerted on cancer and normal cells was determined using the Cell Proliferation Reagent WST-1 assay (Roche Molecular Biochemicals, Mannheim, Germany). […] The formazan dye produced by metabolically active cells was quantified by absorbance readings at appropriate wavelengths. […] The absorbance of the samples was measured against a background control at 450 nm using a microplate reader with a reference wavelength at 600 nm. The obtained results are expressed as the means of at least two independent experiments performed in triplicate. […]

Data set [21] relates to methicillin-resistant S. aureus SA 3202. The experiment in a line: MBC, agar aliquot subculture method, MRSA1. The class given is cell-based. Conditions: Staphylococcus aureus. Here is the method: as §1
Data set [22] relates to vancomycin-resistant E. faecalis VRE 368. The data set is described as follows: MBC, agar aliquot subculture method, VRE2. The class given is cell-based. Conditions: Enterococcus faecalis. As to the method:
as §1

Data set [23] relates to Mycobacterium smegmatis ATCC 700084. Conditions: 3 days.
Data set [24] deals with Enterococcus faecalis. The data set is described as follows: MBC, agar aliquot subculture method, EF. Format: cell-based. Conditions: ATCC29213. As to the method: as §1
Data set [25] has as its system methicillin-resistant S. aureus 63718. Also on record: method as in PMID 20386717. Conditions: MRSA 63718, characterisation of the isolate; cited from earlier work.

In brackets after ≈: the same amount, converted by molar mass. Where only a bound is given, the exact number is not on record here.

For the molecule `C=CCn1cc(COc2ccc3c(c2)Sc2c[n+](C)c4ccccc4c2N3)nn1` [2a, 5-Methyl-9-(1-allyl-1H-1,2,3-triazol-4-yl)methoxy-12H-quino [3,4-b][1,4]benzothiazinium chloride], the IC50 – broadly, the midpoint of a concentration-inhibition curve – in data set [1] is 0.23 ± 0.06 µM; in [2] it was 0.45 ± 0.08 µM; in [3], 2.1 ± 0.5 µM; in data set [4], 47.8 ± 3.5 µM; in data set [20], 0.23 to 2.1 µM. In addition, the MIC (usually the lowest concentration found to suppress growth) came out at 131 µM in [5]; 262 µM in data set [6]; 262 µM in [7]; 131 µM in data set [8]; 262 µM in data set [9]; 524 µM in [10]. Moreover, the MIC is 262 µM in [11], 262 µM in data set [12], 32.7 µM in [13] and 65.5 µM in [14]. In addition, the MBC (in general, the lowest tested concentration that kills the bacteria rather than only halting them) is 131 µM in data set [15]; 262 µM in [16]; 131 µM in data set [17]; 32.7 µM in [18]; 65.5 µM in data set [19].
Regarding `C[n+]1cc2c(c3ccccc31)Nc1ccc(OCc3cn(-c4ccc(Cl)cc4)nn3)cc1S2` [2m, 5-Methyl-9-(1-(4-chlorophenyl)-1H-1,2,3-triazol-4-yl)methoxy-12H-quino [3,4-b][1,4]benzothiazinium chloride], the IC50 in data set [1] is 23.4 ± 1.5 µM; in data set [2] it was 16.8 ± 1.2 µM; in [3], 8.9 ± 0.9 µM; in data set [4], > 100 µM. Moreover, the MIC in data set [5] is 65.5 µM; in data set [6], 131 µM; in data set [7], 131 µM; in data set [8], 32.7 µM; in data set [9] it was 65.5 µM; in data set [10], > 524 µM. For the same molecule, the MIC in [11] was determined as 524 µM; in data set [12], 524 µM; in [13] it was 8.19 µM; in data set [14], 16.3 µM. Also, the MBC was 65.5 µM in data set [15]; 131 µM in data set [21]; 131 µM in data set [16]; 32.7 µM in data set [17]; 524 µM in data set [22]; 8.19 µM in [18]. Besides, in data set [19], the MBC was 16.3 µM. For the same molecule, in data set [23] (MTT), the “Conc.: lowest multiple of MBC with at least 70% inhibition of respiratory activity” value was 1× MIC (1× MBC). Further, the “Conc.: lowest multiple of MIC with at least 70% inhibition of respiratory activity” value in data set [23] (MTT) is given as 1× MIC (1× MBC). Further, in [23] (Mycobacterium smegmatis), the “viability of M. smegmatis at MIC value” is “less than 70%”. Further, the “M. smegmatis Respiration Inhibition” value in data set [23] (at the concentration (lowest multiple of MIC with at least 70% inhibition)) is on record as 87.1%.
On to `CC1(C)S[C@@H]2[C@H](NC(=O)[C@H](N)c3ccccc3)C(=O)N2[C@H]1C(=O)O` [AMP, ampicillin, reference compound], for which the MIC in data set [5] was 5.72 µM (≈ 2 µg/mL); in [6], > 45.8 µM; in data set [7], > 45.8 µM; in data set [8], 45.8 µM (≈ 16 µg/mL); in data set [9] it was 2.81 µM (≈ 0.982 µg/mL). Also, the MBC in data set [15] was 5.72 µM (≈ 2 µg/mL); in data set [21], > 45.8 µM; in data set [16], > 45.8 µM; in data set [17], 45.8 µM (≈ 16 µg/mL); in [24] it was 2.81 µM (≈ 0.982 µg/mL).
On to `CN[C@H](CC(C)C)C(=O)N[C@H]1C(=O)N[C@@H](CC(N)=O)C(=O)N[C@H]2C(=O)N[C@H]3C(=O)N[C@H](C(=O)N[C@H](C(=O)O)c4cc(O)cc(O)c4-c4cc3ccc4O)[C@H](O)c3ccc(c(Cl)c3)Oc3cc2cc(c3O[C@@H]2O[C@H](CO)[C@@H](O)[C@H](O)[C@H]2O[C@H]2C[C@](C)(N)[C@H](O)[C@H](C)O2)Oc2ccc(cc2Cl)[C@H]1O` [vancomycin], for which, in data set [25], the MIC of vancomycin is 2 µg/mL.

These data come from paper PMC10487436, “Towards Anticancer and Antibacterial Agents: Design and Synthesis of 1,2,3-Triazol-quinobenzothiazine Derivatives” (International Journal of Molecular Sciences, 2023).
